pIC50: −log10 of the molar value.
How the values were obtained:
[1] = target: T1, Type-1 angiotensin II receptor (Bos taurus, UniProt P25104); test: Binding affinity for angiotensin II receptor of bovine adrenal cortex; type: tissue-based
T1 sequence (P25104 whole entry): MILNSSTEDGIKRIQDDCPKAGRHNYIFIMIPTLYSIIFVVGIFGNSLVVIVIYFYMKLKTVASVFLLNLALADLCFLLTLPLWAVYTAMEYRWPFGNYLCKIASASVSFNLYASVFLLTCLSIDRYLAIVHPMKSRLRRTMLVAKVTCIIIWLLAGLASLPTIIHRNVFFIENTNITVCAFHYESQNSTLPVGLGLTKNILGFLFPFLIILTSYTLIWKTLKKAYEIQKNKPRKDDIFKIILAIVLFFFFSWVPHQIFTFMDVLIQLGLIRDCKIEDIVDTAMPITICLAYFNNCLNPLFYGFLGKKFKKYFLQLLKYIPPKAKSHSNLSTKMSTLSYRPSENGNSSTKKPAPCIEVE

[2] = system: Rattus norvegicus; test: Tested for drop in blood pressure over 5 hr when administered orally at 10 mg/kg in high renin rat hypertension model; type: functional; settings: route oral

Compound	pIC50 [1]	Blood pressure [2]
CCOC(=O)c1ccc2nc(OC(C)C)c(Cc3ccc(-c4ccccc4-c4nn[nH]n4)cc3)c(=O)n2c1	5.31	–
CCCOc1nc2ccc(C)cn2c(=O)c1Cc1ccc(-c2ccccc2-c2nn[nH]n2)cc1	5.80	–
CCCOc1nc2ccccn2c(=O)c1Cc1ccc(-c2ccccc2-c2nn[nH]n2)cc1	6.60	50 mmHg
CCCCOc1nc2ccccn2c(=O)c1Cc1ccc(-c2ccccc2-c2nnn[nH]2)cc1	5.62	–
CCCOc1nc2cc(C)ccn2c(=O)c1Cc1ccc(-c2ccccc2-c2nn[nH]n2)cc1	5.40	–
CCOc1nc2ccccn2c(=O)c1Cc1ccc(-c2ccccc2-c2nnn[nH]2)cc1	5.36	–
COc1nc2ccccn2c(=O)c1Cc1ccc(-c2ccccc2-c2nn[nH]n2)cc1	4.85	–
CC(C)COc1nc2ccc(C(C)O)cn2c(=O)c1Cc1ccc(-c2ccccc2-c2nn[nH]n2)cc1 (centres undefined)	6.00	–
Cc1ccc2nc(OC(C)C)c(Cc3ccc(-c4ccccc4-c4nnn[nH]4)cc3)c(=O)n2c1	5.22	–
CCCOc1nc2c(C)cccn2c(=O)c1Cc1ccc(-c2ccccc2-c2nn[nH]n2)cc1	5.22	–
Cc1ccc2nc(OCC(C)C)c(Cc3ccc(-c4ccccc4-c4nnn[nH]4)cc3)c(=O)n2c1	5.40	–
CC(C)Oc1nc2ccc(C(=O)O)cn2c(=O)c1Cc1ccc(-c2ccccc2-c2nnn[nH]2)cc1	4.16	–
CCCCc1nc(Cl)c(CO)n1Cc1ccc(-c2ccccc2-c2nn[nH]n2)cc1 [LOSARTAN]	6.52	–

From ChEMBL document CHEMBL1127870, “Substituted 4H-pyrido[1,2-a]pyrimidin-4-one angiotensin II receptor antagonists” (Bioorg Med Chem Lett, 1994)
